Measured values as given in patent publication US8722849B2, “Polypeptides” (Novo Nordisk A/S, priority 2011, dated 2014).
≈ marks a conversion by molar mass, not a printed value. Like-named read-outs stand apart in the source and are kept apart here. Starred links: 1 amine or outer side, 2 acyl side, 3 side chain; linkers in the order of their positions; H or OH if unused. Positions of bridges follow the written chain, without caps; N, C: chain ends. Residues, ends and D or L forms follow the SMILES beside them. Groups on a side chain read outwards from the residue. *: point of attachment. C20 diacid = O=C(O)CCCCCCCCCCCCCCCCCCC(=O)*; C18 diacid = O=C(O)CCCCCCCCCCCCCCCCC(=O)*; γGlu = O=C(O)[C@H](CCC(=O)[*:2])N[*:1]; AEEA = NCCOCCOCC(=O)O

How the values were obtained:
[1] = target: T1, human calcitonin receptor (Homo sapiens, UniProt P30988); test: Assay (II)a functional CRE-luciferase assay, human calcitonin receptor; type: cell-based; conditions: Table 7; human calcitonin (CTa) receptor
T1 construct: expressed in transfected cells; host or cells: BHK570
T1 sequence (P30988 25-474): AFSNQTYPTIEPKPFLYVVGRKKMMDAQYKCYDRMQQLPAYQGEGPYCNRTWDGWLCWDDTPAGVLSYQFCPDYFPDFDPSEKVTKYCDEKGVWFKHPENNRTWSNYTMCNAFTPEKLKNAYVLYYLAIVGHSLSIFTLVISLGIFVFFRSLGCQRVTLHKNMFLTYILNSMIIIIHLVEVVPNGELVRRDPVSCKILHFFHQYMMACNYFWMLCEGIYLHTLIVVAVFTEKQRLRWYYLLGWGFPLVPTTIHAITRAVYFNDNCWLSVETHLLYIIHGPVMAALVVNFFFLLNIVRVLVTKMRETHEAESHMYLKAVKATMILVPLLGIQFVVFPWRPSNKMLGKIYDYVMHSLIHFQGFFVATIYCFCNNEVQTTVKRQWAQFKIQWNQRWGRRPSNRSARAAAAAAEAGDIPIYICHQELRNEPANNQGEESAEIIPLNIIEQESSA

[2] = target: T2, human amylin receptor (amylin 3(a) receptor: human calcitonin receptor + RAMP-3) (Homo sapiens, UniProt O60896+P30988); test: Assay (II)a functional CRE-luciferase assay, human amylin receptor; type: cell-based; conditions: Table 2; BHK amylin 3(a)-receptor/CRE-luc cells
T2 construct: expressed in transfected cells; host or cells: BHK570
T2 sequence (P30988 25-474): T1 sequence (P30988 25-474)
T2 sequence (O60896 24-148 partner): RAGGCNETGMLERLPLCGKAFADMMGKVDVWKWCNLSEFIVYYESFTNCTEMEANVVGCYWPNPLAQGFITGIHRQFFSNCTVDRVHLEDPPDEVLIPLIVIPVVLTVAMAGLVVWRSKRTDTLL

food intake = test: Assay (I) efficacy testing on appetite (food intake), ad libitum fed rat model; type: in vivo, Sprague Dawley (SD) rats; conditions: 3 nmol/kg
Method in brief: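 Sprague Dawley rats (200–250 g), single-housed under reversed light cycle with free food and water, got one ip, po or sc dose of 0.01–3 mg/kg just before lights-off. Individual food intake recorded hourly for 7 h, then at 24 h and sometimes 48 h; groups of 5–8, Grubbs outliers excluded.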

[3] = Assay (IV) determination of solubility; type: physicochemical
Method in brief: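 Polypeptide in water (~500 nmol/ml stock) was mixed 1:1 with 100 mM buffers from pH 3.0 to 8.0 (glycylglycine pH 3.0–5.0; bistrispropane pH 6.0–8.0). After 18 hours at room temperature, samples were centrifuged and the polypeptide remaining in solution was quantified by HPLC.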

[4] = bistrispropane buffer, pH 6, pH 6.0, read-out: Solubility pH 6.0
[5] = bistrispropane buffer, pH 6.5, pH 6.5, read-out: Solubility pH 6.5
[6] = bistrispropane buffer, pH 7, pH 7.0, 18 hours at room temperature, Table 3, read-out: Solubility pH 7.0
[7] = bistrispropane buffer, pH 7, pH 7.0, Table 8, read-out: Solubility pH 7.0
[8] = bistrispropane buffer, pH 7, pH 7.0, read-out: Solubility pH 7.0
[9] = bistrispropane buffer, pH 7.5, pH 7.5, read-out: Solubility pH 7.5
[10] = bistrispropane buffer, pH 8, pH 8.0, read-out: Solubility pH 8.0
[11] = glycylglycine buffer, pH 3, pH 3.0, read-out: Solubility pH 3.0
[12] = glycylglycine buffer, pH 4, pH 4.0, 18 hours at room temperature, Table 2, read-out: Solubility pH 4.0
[13] = glycylglycine buffer, pH 4, pH 4.0, read-out: Solubility pH 4.0
[14] = glycylglycine buffer, pH 5, pH 5.0, read-out: Solubility pH 5.0

EC50 [1] [nM]	EC50 [2] [nM]	solubility at 18 h [3, 4] [µM]	solubility at 18 h [3, 5] [µM]	solubility at 18 h [3, 6] [µM]	solubility at 18 h [3, 7] [µM]	solubility at 18 h [3, 8] [µM]	solubility at 18 h [3, 9] [µM]	solubility at 18 h [3, 10] [µM]	solubility at 18 h [3, 11] [µM]	solubility at 18 h [3, 12] [µM]	solubility at 18 h [3, 13] [µM]	solubility at 18 h [3, 14] [µM]	solubility at 18 h ([3]; bistrispropane buffer, pH 7, pH 7.0, Table 9, read-out: Solubility pH 7.0) [µM]	solubility at 18 h ([3]; bistrispropane buffer, pH 7.5, pH 7.5, Table 9, read-out: Solubility pH 7.5) [µM]	Structure (SMILES)	Food intake reduction 0-24 h 3 nmol/kg (%) (food intake)	Food intake reduction 24-48 h 3 nmol/kg (%) (food intake)
0.045	0.0385	> 200	> 200	155 (≈ 736 µg/mL)	155 (≈ 736 µg/mL)	155 (≈ 736 µg/mL)	169 (≈ 803 µg/mL)	> 200	> 200	> 200	> 200	> 200			CC[C@H](C)[C@H](NC(=O)[C@H](CCCCNC(=O)COCCOCCNC(=O)COCCOCCNC(=O)CC[C@H](NC(=O)CCCCCCCCCCCCCCCCC(=O)O)C(=O)O)NC(=O)CNC(=O)[C@H](Cc1ccccc1)NC(=O)[C@H](CC(N)=O)NC(=O)[C@H](CC(N)=O)NC(=O)[C@H](CO)NC(=O)[C@H](CO)NC(=O)[C@H](Cc1c[nH]cn1)NC(=O)[C@H](Cc1c[nH]cn1)NC(=O)[C@H](CC(C)C)NC(=O)[C@H](Cc1ccccc1)NC(=O)[C@H](CCC(=O)O)NC(=O)[C@H](C)NC(=O)[C@H](CC(C)C)NC(=O)[C@H](CCCNC(=N)N)NC(=O)[C@H](CCC(N)=O)NC(=O)[C@@H](NC(=O)[C@H](C)NC(=O)[C@@H]1CSSC[C@H](NC(=O)[C@@H](N)CCCCN)C(=O)N[C@@H](CC(N)=O)C(=O)N[C@@H]([C@@H](C)O)C(=O)N[C@@H](C)C(=O)N[C@@H]([C@@H](C)O)C(=O)N1)[C@@H](C)O)C(=O)N[C@@H](CC(C)C)C(=O)N1CCC[C@H]1C(=O)N1CCC[C@H]1C(=O)N[C@H](C(=O)N[C@@H](CC(N)=O)C(=O)N[C@H](C(=O)NCC(=O)N[C@@H](CO)C(=O)N[C@@H](CC(N)=O)C(=O)N[C@H](C(=O)N[C@@H](Cc1ccc(O)cc1)C(N)=O)[C@@H](C)O)C(C)C)[C@@H](C)O [Example 73, N-epsilon25-[2-(2-{2-[2-(2-{2-[(S)-4-Carboxy-4-(17-carboxyheptadecanoylamino)butyrylamino]ethoxy}ethoxy)acetylamino]ethoxy}ethoxy)acetyl]-[Glu14,His17,Lys25]-pramlintide] (H-KCNTATCATQRLAEFLHHSSNNFGK([AEEA-AEEA-γGlu-C18 diacid])ILPPTNVGSNTY-NH2; disulfide 2-7 (inferred); N-terminus and C-terminus assumed)	29	2
0.352	0.299	> 200	> 200	> 200		> 200	> 200	> 200	> 200	> 200	> 200	> 200			CC[C@H](C)[C@H](NC(=O)[C@@H]1CCCN1C(=O)CNC(=O)[C@H](Cc1ccccc1)NC(=O)[C@H](CC(N)=O)NC(=O)[C@H](CC(N)=O)NC(=O)[C@H](CO)NC(=O)[C@H](CO)NC(=O)[C@H](Cc1c[nH]cn1)NC(=O)[C@H](Cc1c[nH]cn1)NC(=O)[C@H](CC(C)C)NC(=O)[C@H](Cc1ccccc1)NC(=O)[C@H](CCC(=O)O)NC(=O)[C@H](C)NC(=O)[C@H](CC(C)C)NC(=O)[C@H](CCCNC(=N)N)NC(=O)[C@H](CCC(N)=O)NC(=O)[C@@H](NC(=O)[C@H](C)NC(=O)[C@@H]1CSSC[C@H](NC(=O)[C@H](CCCCN)NC(=O)[C@H](CCC(=O)O)NC(=O)CC[C@H](NC(=O)CCCCCCCCCCCCCCCCCCC(=O)O)C(=O)O)C(=O)N[C@@H](CC(N)=O)C(=O)N[C@@H]([C@@H](C)O)C(=O)N[C@@H](C)C(=O)N[C@@H]([C@@H](C)O)C(=O)N1)[C@@H](C)O)C(=O)N[C@@H](CC(C)C)C(=O)N1CCC[C@H]1C(=O)N1CCC[C@H]1C(=O)N[C@H](C(=O)N[C@@H](CC(N)=O)C(=O)N[C@H](C(=O)NCC(=O)N[C@@H](CO)C(=O)N[C@@H](Cc1c[nH]cn1)C(=O)N[C@H](C(=O)N[C@@H](Cc1ccc(O)cc1)C(N)=O)[C@@H](C)O)C(C)C)[C@@H](C)O [Example 56, N-alpha-[(S)-4-Carboxy-4-(19-carboxynonadecanoylamino)butyryl]-Glu-[Glu14,His17,His35]-pramlintide] ({C20 diacid-γGlu}-EKCNTATCATQRLAEFLHHSSNNFGPILPPTNVGSHTY-NH2; disulfide 3-8 (inferred))	46	21
0.169	0.156	> 200	> 200	> 200	> 200	> 200	> 200	> 200	> 200	> 200	> 200	> 200	> 200	> 200	CC[C@H](C)[C@H](NC(=O)[C@@H]1CCCN1C(=O)CNC(=O)[C@H](Cc1ccccc1)NC(=O)[C@H](CC(N)=O)NC(=O)[C@H](CCC(N)=O)NC(=O)[C@H](CO)NC(=O)[C@H](CO)NC(=O)[C@H](Cc1c[nH]cn1)NC(=O)[C@H](Cc1c[nH]cn1)NC(=O)[C@H](CC(C)C)NC(=O)[C@H](Cc1ccccc1)NC(=O)[C@H](CCC(=O)O)NC(=O)[C@H](C)NC(=O)[C@H](CC(C)C)NC(=O)[C@H](CCCNC(=N)N)NC(=O)[C@H](CCC(N)=O)NC(=O)[C@@H](NC(=O)[C@H](C)NC(=O)[C@@H]1CSSC[C@H](NC(=O)[C@H](CCCCN)NC(=O)CC[C@H](NC(=O)CCCCCCCCCCCCCCCCCCC(=O)O)C(=O)O)C(=O)N[C@@H](CC(N)=O)C(=O)N[C@@H]([C@@H](C)O)C(=O)N[C@@H](C)C(=O)N[C@@H]([C@@H](C)O)C(=O)N1)[C@@H](C)O)C(=O)N[C@@H](CC(C)C)C(=O)N1CCC[C@H]1C(=O)N1CCC[C@H]1C(=O)N[C@H](C(=O)N[C@@H](CC(N)=O)C(=O)N[C@H](C(=O)NCC(=O)N[C@@H](CO)C(=O)N[C@@H](Cc1c[nH]cn1)C(=O)N[C@H](C(=O)N[C@@H](Cc1ccc(O)cc1)C(N)=O)[C@@H](C)O)C(C)C)[C@@H](C)O [Example 117, N-alpha-[(S)-4-Carboxy-4-(19-carboxynonadecanoylamino)butyryl]-[Glu14,His17,Gln21,His35)-pramlintide] ({C20 diacid-γGlu}-KCNTATCATQRLAEFLHHSSQNFGPILPPTNVGSHTY-NH2; disulfide 2-7 (inferred); C-terminus assumed)	50	35
